What all share (type): cell-based, Human
The test system of one assay is H1581 (FGFR1 amp). The assay can be described thus: In vitro growth inhibition of H1581 tumor cells (MTT/CCK8). The note with it: Homo sapiens, NCI-H1581; in vitro growth inhibition (or induction of apoptosis), cells cultured 3 to 5 days, MTT (CCK8); read-out: IC50 H1581 (FGFR1 amp).
For another assay, the system named is KATO III (FGFR2 amp). Put plainly: In vitro growth inhibition of KATO III tumor cells (MTT/CCK8). The conditions noted are these: Homo sapiens, KATO III; in vitro growth inhibition (or induction of apoptosis), cells cultured 3 to 5 days, MTT (CCK8); read-out: IC50 KATO III (FGFR2 amp).
Another assay has as its system Hep3B2 (FGFR3/4+++). Put plainly: In vitro growth inhibition of Hep3B2 tumor cells (MTT/CCK8). The note with it: Homo sapiens, Hep3B; in vitro growth inhibition (or induction of apoptosis), cells cultured 3 to 5 days, MTT (CCK8); read-out: IC50 Hep3B2 (FGFR3/4+++). An excerpt:
(§1) Tumor cell lines are an effective model for studying in vitro tumor growth inhibition. In the present invention, a representative tumor cell line was selected to determine the cell growth inhibition activity of the present compound. All cell lines used were from ATCC, DSMZ, and cell banks of the Chinese Academy of Sciences. Cell culture conditions and methods were in accordance with the requirements of each cell line. Cells were subcultured in vitro for no more than 3 generations each time, and as required, single-clone purification and identification of cell lines could be carried out.
(§2) The cell culture media used were RPMI1640 (Gibco), DMEM (Gibco), MEM (Gibco), L15 (Gibco), IMDM (Gibco), McCOY'S5A, and William's (Gibco). 5-20% fetal bovine serum (Gibco), 1% double antibiotic, 2 mM glutamine, or 1 mM sodium pyruvate were added. The names, species, major gene characteristics, culture media and cell sources of the cell lines used are shown in table 1, wherein “amp” refers to gene amplification. “+++” refers to gene overexpression. The main genetic characteristics of cells were obtained from the COSMIC Cell Lines Project and related research papers, respectively.
(§3) Adherent cells were digested with 0.25% trypsin-EDTA (Gibco). Suspension culture cells were collected by centrifugation (1700 rpm, 3 minutes). The supernatant was discarded and the cells were counted. According to each cell growth cycle, different concentrations of cells were prepared (5˜10×10^4 cells per ml), and inoculated to 96-well plates (Corning), with 100 μl per well, and incubated overnight at 37° C., 5% CO2. The next day, the test compound was added to the cultured cells (2 wells in parallel). The final concentration of the solvent was less than 1/1,000. The cells were further cultured for 3 to 5 days and assayed by MTT.
(§4) The compound was stored at a concentration of 10 mM at −20° C. and diluted to 2- or 10-fold series prior to use. BGJ398 and AC220 were synthesized according to the methods of WO2006420A1 and US2007232604A1, respectively.
(§5) The adherent cells were taken out from the cell culture medium, and immediately added to a freshly prepared complete medium containing 10% CCK8 (5% FBS), 100 ul per hole. The suspended cells were directly added to a CCK8 reagent until reaching a final concentration of 10% and cultured for 1 to 4 hours.
(§6) T=optical density of drug-treated cell wells−optical density of blank control wells; T0=optical density of cell wells before drug treatment−optical density of blank control wells; C=optical density of solvent control wells−optical density of blank control wells. […] The experiments were repeated 1 to 3 times and a statistical analysis of data was conducted.

A further assay concerns MOLM-13 (FLT3-ITD). The assay can be described thus: In vitro growth inhibition of MOLM-13 tumor cells (MTT/CCK8). The conditions noted are these: Homo sapiens, MOLM-13; in vitro growth inhibition (or induction of apoptosis), cells cultured 3 to 5 days, MTT (CCK8); read-out: IC50 MOLM-13 (FLT3-ITD).
A further assay deals with KCL-22 (BCR-ABL). Put plainly: In vitro growth inhibition of KCL-22 tumor cells (MTT/CCK8). The note with it: Homo sapiens, KCL-22; in vitro growth inhibition (or induction of apoptosis), cells cultured 3 to 5 days, MTT (CCK8); read-out: IC50 KCL-22 (BCR-ABL).
From the text: as §1, §2, §3, §4, §5, §6

The subject of the next assay is Kasumi-1 (KIT N822K). Put plainly: In vitro growth inhibition of Kasumi-1 tumor cells (MTT/CCK8). The note with it: Homo sapiens, Kasumi 1; in vitro growth inhibition (or induction of apoptosis), cells cultured 3 to 5 days, MTT (CCK8); read-out: IC50 Kasumi-1 (KIT N822K).
From the text: as §1, §2, §3, §4, §5, §6

The next assay concerns H1703 (PDGFRa amp). The assay can be described thus: In vitro growth inhibition of H1703 tumor cells (MTT/CCK8). The note with it: Homo sapiens, NCI-H1703; in vitro growth inhibition (or induction of apoptosis), cells cultured 3 to 5 days, MTT (CCK8); read-out: IC50 H1703 (PDGFRa amp).
From the text: as §1, §2, §3, §4, §5, §6

For another assay, the system named is Karpas 299 (NPM-ALK). Put plainly: In vitro growth inhibition of Karpas 299 tumor cells (MTT/CCK8). The conditions noted are these: Homo sapiens, KARPAS-299; in vitro growth inhibition (or induction of apoptosis), cells cultured 3 to 5 days, MTT (CCK8); read-out: IC50 Karpas 299 (NPM-ALK).
From the text: as §1, §2, §3, §4, §5, §6

Drawing on patent US10800741B2 (ANCUREALL PHARMACEUTICAL (SHANGHAI) CO., LTD., priority 2017, dated 2020), this text covers IC50 for six compounds.

Consider `CNC(=O)c1cc2c(Oc3ccc(NC(=O)Nc4cc(C(C)(C)C)nn4C)c(Cl)c3Cl)ccnc2cc1OCCOC` [Compound 60, 4-{4-[3-(5-tert-butyl-2-methyl-2H-pyrazol-3-yl)-ureido]-2,3-dichloro-phenoxy}-7-(2-methoxy-ethoxy)-quinolin-6-carboxylic acid methylamide], for which the IC50 in the assay with H1581 (FGFR1 amp) came to 1.31 nM; with KATO III (FGFR2 amp) it was 0.36 nM; in the assay on Hep3B2 (FGFR3/4+++) it was 5.2 nM; in the assay on MOLM-13 (FLT3-ITD), 0.89 nM; in the assay with KCL-22 (BCR-ABL) it was 1.05 nM; in the assay on Kasumi-1 (KIT N822K), 0.493 nM. For the same compound, the IC50 in the assay with H1703 (PDGFRa amp) came out at 6.71 nM; in the assay on Karpas 299 (NPM-ALK), 12.4 nM.

As to `COc1cc2nccc(Nc3ccc(NC(=O)Nc4cc(C(C)(C)C)n[nH]4)c(Cl)c3)c2cc1C(N)=O` [Compound 79, 4-{4-[3-(5-tert-butyl-2H-pyrazol-3-yl)-ureido]-3-chlorophenylamino}-7-methoxyquinol in-6-carboxamide], the IC50 in the assay with H1581 (FGFR1 amp) was 254 nM; in the assay on KATO III (FGFR2 amp) it was 19.9 nM; in the assay with Hep3B2 (FGFR3/4+++), 384 nM; with MOLM-13 (FLT3-ITD) it was 107 nM; with KCL-22 (BCR-ABL) it was greater than 1000 nM; in the assay with Kasumi-1 (KIT N822K) it was greater than 1000 nM. Further, the IC50 in the assay on H1703 (PDGFRa amp) was 278 nM; in the assay on Karpas 299 (NPM-ALK) it was greater than 1000 nM.

Turning to `COc1cc2nccc(Oc3ccc(NC(=O)Nc4cc(C(C)C)n[nH]4)c(Cl)c3)c2cc1C(N)=O` [Compound 40, 4-{3-chloro-4-[3-(5-isopropyl-2H-pyrazol-3-yl)-ureido]-phenoxy}-7-methoxyquinolin-6-carboxamide], the IC50 with H1581 (FGFR1 amp) stood at 127 nM; with KATO III (FGFR2 amp), 2.53 nM; in the assay with Hep3B2 (FGFR3/4+++) it was 446 nM; in the assay on MOLM-13 (FLT3-ITD), 19.6 nM; in the assay with KCL-22 (BCR-ABL), 112 nM; in the assay on Kasumi-1 (KIT N822K), 106 nM. The IC50 was determined as 93 nM in the assay on H1703 (PDGFRa amp) and 721 nM with Karpas 299 (NPM-ALK).

Turning to `CC(C)(C)c1cc(NC(=O)Nc2ccc(Oc3ccnc4cc(OCCN5CCCCC5)c(C(N)=O)cc34)c(Cl)c2Cl)[nH]n1` [Compound 96, 4-{4-[3-(5-tert-butyl-2H-pyrazol-3-yl)-ureido]-2,3-dichloro-phenoxy}-7-(2-piperidin-1-yl-ethoxy)-quinolin-6-carboxamide], the IC50 in the assay with H1581 (FGFR1 amp) was 38 nM; with KATO III (FGFR2 amp), 1.72 nM; in the assay with Hep3B2 (FGFR3/4+++) it was 36.6 nM; in the assay on MOLM-13 (FLT3-ITD), 7.23 nM; in the assay on KCL-22 (BCR-ABL) it was 10.2 nM; with Kasumi-1 (KIT N822K), 31.4 nM. For the same compound, the figures for the IC50 with H1703 (PDGFRa amp) and with Karpas 299 (NPM-ALK) were 45 nM and greater than 1000 nM, respectively.

As to `CC(C)(C)c1cc(NC(=O)Nc2ccc(Oc3ccnc4cc(OCCN5CCCCC5)c(C(N)=O)cc34)cc2Cl)[nH]n1` [Compound 84, 4-{4-[3-(5-tert-butyl-2H-pyrazol-3-yl)-ureido]-3-chloro-phenoxy}-7-(2-piperidin-1-yl-ethoxy)-quinolin-pyridine-6-carboxamide], the IC50 in the assay on H1581 (FGFR1 amp) turned out to be 114 nM; in the assay with KATO III (FGFR2 amp), 6.09 nM; in the assay with Hep3B2 (FGFR3/4+++), 148 nM; with MOLM-13 (FLT3-ITD), 35.2 nM; with KCL-22 (BCR-ABL), 287 nM; in the assay with Kasumi-1 (KIT N822K), 240 nM. Besides, the IC50 in the assay with H1703 (PDGFRa amp) was 127 nM; with Karpas 299 (NPM-ALK), greater than 1000 nM.

As for `CNC(=O)c1cc2c(Oc3ccc(NC(=O)Nc4cc(C(C)(C)C)nn4C)c(Cl)c3)ccnc2cc1OCCOC` [Compound 59, 4-{4-[3-(5-tert-butyl-2-methyl-2H-pyrazol-3-yl)-ureido]-3-chloro-phenoxy}-7-(2-methoxy-ethoxy)-quinolin-6-carboxylic acid methylamide], the IC50 was determined as 5.05 nM with H1581 (FGFR1 amp); 0.11 nM in the assay with KATO III (FGFR2 amp); 19.4 nM in the assay with Hep3B2 (FGFR3/4+++); 2.95 nM in the assay with MOLM-13 (FLT3-ITD); 9.62 nM in the assay with KCL-22 (BCR-ABL); 1.95 nM in the assay with Kasumi-1 (KIT N822K). For the same compound, the IC50 in the assay with H1703 (PDGFRa amp) was 8.17 nM; with Karpas 299 (NPM-ALK), 195 nM.
